# Test results taken from patent US6503524B1, “Delivery of a skin health benefit agent to a treated substrate for transfer to skin” (Kimberly-Clark Worldwide, Inc., priority 2000, dated 2003).
# Like-named read-outs stand apart in the source and are kept apart here.
# Assays:
# [1] = tested on: EpiDerm™ 201 synthetic skin (keratinocytes), interleukin-1 alpha release
# Source text: The synthetic skin, EpiDerm™ 201 (MatTek Corporation, Ashland, Mass. contains keratinocytes that release interleukin-1 alpha (IL-1 alpha) when subjected to proteases in the fecal extract. When the IL-1 alpha was released, it diffused from the skin into the fluid below the EpiDerm™. Samples of this fluid were taken and analyzed for the presence of the IL-1 alpha. Higher levels of IL-1 alpha was indicative of greater skin irritation.
# Prior to application onto the EpiDerm™, the fecal extract (10.4 μL) was pre-incubated for 30 minutes at room temperature with 250 mM zinc sulfate heptahydrate in water (2.6 μL). Water only and fecal extract only samples served as controls. After application of the samples to the EpiDerm™, 25 μL aliquots were removed from the underlying media at 8, 12, and 24 hours to test for the presence of the IL-1 alpha. The aliquots were directly added to a 1.5 mL micro-centrifuge tube containing 225 μL of filtered-sterilized 20 mM tris-HCl, pH 8.0, 1% BSA buffer and stored at −80° C. After all samples were collected, IL-1 alpha levels were quantified using the R&D Systems Interleukin-1 alpha Quantikine Kit (R&D Systems, Minneapolis, Minn.
# [2] = not given; remark: listed apart in the source
# [3] = tested on: proteolytic activity of infant urine; conditions: zinc sulfate heptahydrate 0-50 mM; FIG. 8
# Protocol: The proteolytic activity of infant urine was measured using fluorescently labeled casein.
# Two (2) infant urine (100 μL) samples were added to wells of a 96 white plate (Dynex) containing 80 μL of 12.5 μg/ml solution of a fluorescent dye-labeled casein substrate (EnzChek Protease Assay Kit (E-6639)) in 100 mM Tris-HCl, pH 8.0, and allowed to incubate for 60 minutes at 37° C. […] Reaction of the infant urine with the casein substrate cleaved the fluorescent dye from the substrate. RFUs were collected using the Fluoroskan Ascent System with excitation and emission filters of 485 and 538 nm, respectively. Data were collected each minute for 60 minutes at 37° C. and rates (RFU/min) from 30-50 minutes were calculated for each zinc concentration. Using the uninhibited wells as 100% protease activity, percent of urine proteolytic activity remaining was determined for each concentration of zinc inhibitor (Inhibited Rate/Uninhibited rate* 100).
# [4] = tested on: proteolytic activity of a fecal extract; conditions: zinc sulfate heptahydrate 0-1 mM; FIG. 7
# Protocol: The supernatant was filtered through 0.22 micron cellulose acetate filters and stored at −80° C. until use.
# [5] = 1.0 mM zinc sulfate heptahydrate
# [6] = 2.5 mM zinc sulfate heptahydrate
# [7] = 5.0 mM zinc sulfate heptahydrate
# [8] = 10.0 mM zinc sulfate heptahydrate
# [9] = 20.0 mM zinc sulfate heptahydrate
# [10] = .1 mM zinc sulfate heptahydrate
# [11] = increased concentration of zinc sulfate heptahydrate (Table 1)
smiles,measurement,setting,value
O.O.O.O.O.O.O.O=S(=O)([O-])[O-].[Zn+2] [zinc sulfate heptahydrate],proteolytic activity of fecal extract on synthetic skin (IL-1 alpha release),"[1]; 0, 25, 50, 125 and 250 mM zinc sulfate heptahydrate, FIG. 10",effectively inhibits the proteolytic activity of fecal extract in a dose-dependent manner
same,interleukin-1 alpha released into the underlying media,"[1]; FE+zinc (250 mM, 2.6 μL) relative to FE+water, 8, 12 and 24 hours, FIG. 9",reduced the amount of interleukin-1 alpha released
same,"pH, Infant Urine Example F",[5],8.0
same,"pH, Infant Urine Example G",[5],7.0
same,"pH, Infant Urine Example H",[5],7.5
same,"pH, Infant Urine Example F",[6],7.5-8.0
same,"pH, Infant Urine Example G",[6],6.5
same,"pH, Infant Urine Example H",[6],7.0-7.5
same,"pH, Infant Urine Example F",[7],7.5
same,"pH, Infant Urine Example G",[7],5.5
same,"pH, Infant Urine Example H",[7],7.0
same,"pH, Infant Urine Example F",[8],7.0
same,"pH, Infant Urine Example G",[8],5.0
same,"pH, Infant Urine Example H",[8],6.5
same,"pH, Infant Urine Example F",[9],7.0
same,"pH, Infant Urine Example G",[9],5.0
same,"pH, Infant Urine Example H",[9],6.5
same,"pH, Infant Urine Example F",[10],8.5
same,"pH, Infant Urine Example G",[10],7.0
same,"pH, Infant Urine Example H",[10],8.0
same,reduction of pH of the infant urine samples,[11],1.5-2.0 pH units
same,"pH, Fecal Extract Example B",[2]; [5],6.5
same,"pH, Fecal Extract Example B",[2]; [6],6.0-6.5
same,"pH, Fecal Extract Example B",[2]; [7],6.0
same,"pH, Fecal Extract Example B",[2]; [8],5.5
same,"pH, Fecal Extract Example B",[2]; [9],5.5
same,"pH, Fecal Extract Example B",[2]; [10],6.5
same,reduction of pH of the fecal extract sample,[2]; [11],1 pH unit
same,inhibition of hydrolysis of casein by infant urine (percent of urine proteolytic activity remaining),[3],effectively inhibited the hydrolysis of casein by infant urine in a dose-dependent manner
same,inhibition of hydrolysis of casein by the fecal extract (percent of fecal proteolytic activity remaining),[4],effectively inhibited the hydrolysis of casein by the fecal extract in a dose-dependent manner
